Test results taken from patent US20230227838A1, “ENHANCED CELL SURVIVAL AGAINST BIOTIC AND ABIOTIC STRESSES THROUGH SALICYLICK ACID-INDUCED NPR1 CONDENSATES” (priority 2020, published 2023).
Positions count from the first letter of the chain named.

T1: NPR1-GFP (Arabidopsis thaliana, UniProt P93002)
T1 construct: expressed in transfected cells; host or cells: Arabidopsis Col-0 seedlings, Agrobacterium-mediated transient expression
T1 sequence (P93002 1-593): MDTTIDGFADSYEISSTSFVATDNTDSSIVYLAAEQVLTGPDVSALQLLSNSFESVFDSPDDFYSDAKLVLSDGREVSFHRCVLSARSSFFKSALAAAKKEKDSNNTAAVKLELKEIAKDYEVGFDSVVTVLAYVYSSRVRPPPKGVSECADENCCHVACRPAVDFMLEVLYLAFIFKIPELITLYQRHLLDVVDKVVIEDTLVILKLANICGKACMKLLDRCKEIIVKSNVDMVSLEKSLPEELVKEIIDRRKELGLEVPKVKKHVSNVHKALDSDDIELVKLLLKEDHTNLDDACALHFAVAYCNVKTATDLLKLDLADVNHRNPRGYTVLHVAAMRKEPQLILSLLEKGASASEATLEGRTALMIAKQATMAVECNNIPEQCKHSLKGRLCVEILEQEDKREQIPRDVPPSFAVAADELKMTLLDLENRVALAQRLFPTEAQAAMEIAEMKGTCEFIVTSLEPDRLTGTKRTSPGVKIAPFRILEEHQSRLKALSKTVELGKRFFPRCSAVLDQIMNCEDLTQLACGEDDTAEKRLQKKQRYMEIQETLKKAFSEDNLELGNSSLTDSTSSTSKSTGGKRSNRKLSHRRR

B1: sim3: SUMOylation-deficient mutant of NPR1 (protein)
chain: T1 sequence (P93002 1-593) with I345A, L346A, L348A
modifications: left off: small tags and cut ends
notes: SUMOylation-deficient mutant of NPR1

Assays:
[1] = tested on: total protein ubiquitination; experiment: Total ubiquitination in N. benthamiana expressing CUL3 and NPR1 or sim3; format: cell-based, Nicotiana benthamiana
Procedure: Protein analysis and IP. Recombinant protein analysis was performed using transient expression in N. benthamiana, or stable over-expression in transgenic Arabidopsis, or expression in E. coli. Total protein extraction from plants was performed by homogenizing leaf tissue in the plant extraction buffer [50 mM Tris-HCl (pH 7.5), 150 mM NaCl, 5 mM EDTA, 0.2% Triton X-100, 0.2% Nonidet P-40] supplemented with 1 mM PMSF, 100 μM MG132, and EDTA-free protease inhibitor cocktail (Roche). For ubiquitinated protein analysis in plants, 100 μM of DUB (deubiquitinase) inhibitor (LifeSensors) and 10 mM NEM were added. Next, the lysates were cleared by centrifugation at 14,000 rpm for 15 min followed by filtering through a 0.2 μm filter. […] Pull-downs or IP experiments were done on total protein extracts by incubating protein samples in the lysis buffer overnight with indicated affinity tag or antibody conjugated to agarose or magnetic beads: GFP-trap agarose beads (Chromotek) for GFP fusions; RFP-trap agarose beads (Chromotek) for mCherry fusions; anti-HA magnetic beads (ThermoFisher) for HA tag fusions; anti-DYKDDDDK coupled magnetic agarose (ThermoFisher) for FLAG tag fusions; and glutathione magnetic agarose (ThermoFisher) for GST fusions. Unless otherwise indicated, after pull-down/IP, beads were washed 3 times and proteins were eluted by boiling in the 2×SDS sample buffer. […]

[2] = molecular target: T1, NPR1-GFP; experiment: Localization of NPR1-GFP and sim3-GFP, transient expression in Arabidopsis seedlings; format: cell-based; conditions: for nuclear-cytoplasmic partitioning of NPR1-GFP: 2 hr

Molecule | total protein ubiquitination under dose response to SA ([1]; 3 mM SA) | nuclear-cytoplasmic partitioning of NPR1-GFP ([2]; 1 mM SA) | nuclear-cytoplasmic partitioning of NPR1-GFP ([2]; 5 mM SA) | formation of NPR1-GFP bodies in nucleus and cytoplasm ([2]; SA treatment 2 hr) | baseline SA-dependent ubiquitination ([1]; compared with NPR1) | subcellular localization ([2]; after SA treatment) | cytoplasmic body formation ([2]; lower SA concentration (1 mM), Arabidopsis seedlings)
O=C(O)c1ccccc1O [SA, salicylic acid] | reduction in ubiquitination | predominant nuclear accumulation of NPR1-GFP | fluorescence was detected also in the cytoplasm | induced formation of discrete NPR1-GFP bodies | – | – | –
B1 | – | – | – | – | lower | predominant cytoplasmic localization | cytoplasmic bodies were also observed at the lower SA concentration
